Key:
[1] = target: T1, CISD2 Gene Product (NAF-1) (Homo sapiens, UniProt Q8N5K1); assay: Stability of Fe—S cluster binding of purified NEET protein NAF-1; type: biochemical; details: for Time (in minutes) to achieve 50% loss of bound cluster (Absorbance 458 nm), CISD2 Gene Product (NAF-1) / Residual cluster bound at end of experiment (Percentage Absorbance 458 nm at time zero), CISD2 Gene Product (NAF-1): pH 6, 37° C., 1:3 protein:compound molar ratio; for Time (in minutes) to achieve 50% loss of bound cluster (Absorbance 458 nm), CISD2 Gene Product (NAF-1): 6 μM compound, run time 500 minutes, Vehicle Control 310; for Residual cluster bound at end of experiment (Percentage Absorbance 458 nm at time zero), CISD2 Gene Product (NAF-1): end of 500 minutes, Vehicle Control 3%; for stabiliser or destabiliser of Fe—S cluster binding, CISD2 Gene Product (NAF-1): time to 50% Fe—S cluster bound loss changed by more than 25% vs Control sample, at the concentrations tested
T1 sequence (Q8N5K1 57-135 limits assumed): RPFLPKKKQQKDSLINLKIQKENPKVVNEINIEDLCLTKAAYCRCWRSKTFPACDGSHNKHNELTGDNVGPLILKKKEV
Procedure: (§1) The modulator effect on the NEET proteins encoded by human CISD1, CISD2, and CISD3 genes by the compounds of the invention has been tested and is reported below. Particularly, the biochemical function of the NEET proteins is measured by the stability of Fe—S cluster binding of the purified NEET proteins.
(§2) The Fe—S cluster binding capacity of NEET proteins is known to be coordinated by four amino-acids in a stretch of 16 (three Cysteine and one Histidine). As the lability of the Fe—S cluster of NEET proteins is sensitive to the environment, cluster stability measurements are one of the measures of interactions of NEET proteins with small molecules and compounds. NEET protein/2Fe-2S cluster stability can be assessed by monitoring the decay in absorbance of its characteristic 458-nm peak (characteristic of the oxidized 2Fe-2S cluster) over time. Each NEET protein (mitoNEET, NAF-1 and Miner 2) was tested for its Fe—S binding in the absence or presence of a compound according to the invention (see table 2 below). The rate of cluster release (time in minutes to achieve 50% loss of bound Fe—S cluster) was compared for each NEET protein in the presence of one of the compounds of the invention (in a 1:3 protein:compound molar ratio) relative to each protein alone.
(§3) At pH 6, all the three NEET proteins (mitoNEET, NAF-1 and Miner 2) have a characteristic rate of loss of the bound Fe—S cluster that can be measured by the decrease of absorbance at wavelength 458 nm over time, using a spectrophotometer. Thus, Bis-Tris buffer (100 mM Bis-Tris pH6, 100 mM Nacl) was used at pH 6 to dilute either DMSO (Blank sample: Bis-Tris Buffer pH 6, 6 μM DMSO), DMSO and one of the three NEET proteins (Control sample: Bis-Tris Buffer pH 6, 6 μM DMSO, 2 μM purified NEET protein) or DMSO, one of the three NEET proteins and a compound of the invention (Test sample: Bis-Tris Buffer pH 6, 6 μM DMSO, […], 6 μM compound of the invention).
(§4) A reaction mix containing DMSO diluted in the Bis-Tris Buffer with or without a compound of the invention was prepared. The purified NEET protein was the last component added to the reaction mix which was then aliquoted into 4 replicates in 96 wells plates. The absorbance at wavelength 458 nm was taken at 5 minutes intervals at 37° C. with a spectrofluorimeter. The assay run time for CISD2 gene product (NAF-1) was 500 minutes and 180 minutes for both the CISD 1 gene product (mitoNEET) and the CISD3 gene product (Miner 2).
(§5) In addition to time monitoring, residual bound Fe—S cluster to NEET protein was measured at the final point of the spectrometry assay for each Test sample and compared to the Control sample data (in parenthesis table 2). This residual binding is measured by the differential percentage between the absorbance 458 nm at time zero and the absorbance 458 nm at the end of the experiment (i.e. respectively 500 or 180 minutes as described hereabove), showing the percentage of NEET protein still able to bind a Fe—S cluster.
(§6) Analysis of the absorbance enables the time for which 50% loss of bound Fe—S cluster is reached (i.e. a 50% absorbance decrease at 458 nm) for each Test sample and each Control sample (in parenthesis table 2) to be determined. The data are then compared to determine whether the compound of the invention stabilizes or destabilizes the NEET protein/Fe—S cluster binding.

[2] = target: T2, CISD3 Gene Product (Miner2) (Homo sapiens, UniProt P0C7P0); assay: Stability of Fe—S cluster binding of purified NEET protein Miner2; type: biochemical; details: for Time (in minutes) to achieve 50% loss of bound cluster (Absorbance 458 nm), CISD3 Gene Product (Miner2) / Residual cluster bound at end of experiment (Percentage Absorbance 458 nm at time zero), CISD3 Gene Product (DMSO 11%): pH 6, 37° C., 1:3 protein:compound molar ratio; for Time (in minutes) to achieve 50% loss of bound cluster (Absorbance 458 nm), CISD3 Gene Product (Miner2): 6 μM compound, run time 180 minutes, Vehicle Control 60; for Residual cluster bound at end of experiment (Percentage Absorbance 458 nm at time zero), CISD3 Gene Product (DMSO 11%): end of 180 minutes, Vehicle Control 11%; for stabiliser or destabiliser of Fe—S cluster binding, CISD3 Gene Product (Miner2): time to 50% Fe—S cluster bound loss changed by more than 25% vs Control sample, at the concentrations tested
T2 sequence (P0C7P0 15-127): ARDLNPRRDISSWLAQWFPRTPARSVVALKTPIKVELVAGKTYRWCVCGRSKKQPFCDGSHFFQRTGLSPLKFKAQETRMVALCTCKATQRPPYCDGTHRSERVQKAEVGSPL
Procedure: as §1, §2, §3, §4, §5, §6

[3] = tested on: H1N1 (influenza A/New Caledonia/20/99); assay: Antiviral effect on A549 cells infected with H1N1; type: cell-based, H1N1 A/New Caledonia/20/99 virus; details: Human A549 cells, MOI of 0.1, 48 h post-infection, MUNANA hydrolysis readout
Procedure: The antiviral effect of the compounds of the invention has been tested on A549 cell lines infected with H1N1 (influenza A/New Caledonia/20/99).
Human A549 cells (80,000 cells/well in a 96 well plate) were treated with a range of concentration of test molecules and immediately infected by H1N1 A/New Caledonia/20/99 virus (clinical isolate) at MOI of 0.1 in DMEM/1% Penicillin/streptomycin supplemented with 0.25 μg/ml TPCK trypsin (Sigma) and incubated at 37° C. in 5% CO2. 48 h post-infection, supernatants (25 μl) were collected and transferred into a 96-well black flat-bottom plate, mixed with 25 μl PBS with Ca++/Mg++(Thermo Fisher) and 50 μl of 2′-(4-Methylumbelliferyl)-α-D-N-acetylneuraminic acid sodium salt hydrate stock-solution (20 μM, MUNANA, Sigma). Plates were incubated 1 h at 37° C. and reaction is stopped by adding 100 μl of Stop Solution (glycine 0.1 M pH10.7/25% ethanol). The amount of fluorescent product released by MUNANA hydrolysis (4-MU) was measured in a Tecan spectrophotometer with excitation and emission wavelengths of 365 and 450 nm respectively.

[4] = target: T3, CISD1 Gene Product (mitoNEET) (Homo sapiens, UniProt Q9NZ45); assay: Stability of Fe—S cluster binding of purified NEET protein mitoNEET; type: biochemical; details: for Time (in minutes) to achieve 50% loss of bound cluster (Absorbance 458 nm), CISD1 Gene Product (mitoNEET) / Residual cluster bound at end of experiment (Percentage Absorbance 458 nm at time zero), CISD1 Gene Product (mitoNEET): pH 6, 37° C., 1:3 protein:compound molar ratio; for Time (in minutes) to achieve 50% loss of bound cluster (Absorbance 458 nm), CISD1 Gene Product (mitoNEET): 6 μM compound, run time 180 minutes, Vehicle Control 80; for Residual cluster bound at end of experiment (Percentage Absorbance 458 nm at time zero), CISD1 Gene Product (mitoNEET): end of 180 minutes, Vehicle Control 16%; for stabiliser or destabiliser of Fe—S cluster binding, CISD1 Gene Product (mitoNEET): time to 50% Fe—S cluster bound loss changed by more than 25% vs Control sample, at the concentrations tested
T3 sequence (Q9NZ45 33-108 limits assumed): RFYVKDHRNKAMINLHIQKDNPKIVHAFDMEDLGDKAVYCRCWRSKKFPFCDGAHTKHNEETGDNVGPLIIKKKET
Procedure: as §1, §2, §3, §4, §5, §6

[5] = Influenza A virus, H1N1, A549, 48 h

| Structure (SMILES) | Time (in minutes) to achieve 50% loss of bound cluster (Absorbance 458 nm), CISD2 Gene Product (NAF-1) [1] [min] | Residual cluster bound at end of experiment (Percentage Absorbance 458 nm at time zero), CISD2 Gene Product (NAF-1) [1] [%] | stabiliser or destabiliser of Fe—S cluster binding, CISD2 Gene Product (NAF-1) [1] | Time (in minutes) to achieve 50% loss of bound cluster (Absorbance 458 nm), CISD3 Gene Product (Miner2) [2] | Residual cluster bound at end of experiment (Percentage Absorbance 458 nm at time zero), CISD3 Gene Product (DMSO 11%) [2] [%] | IC50 [3] [nM] | Time (in minutes) to achieve 50% loss of bound cluster (Absorbance 458 nm), CISD1 Gene Product (mitoNEET) [4] | Residual cluster bound at end of experiment (Percentage Absorbance 458 nm at time zero), CISD1 Gene Product (mitoNEET) [4] [%] | stabiliser or destabiliser of Fe—S cluster binding, CISD3 Gene Product (Miner2) [2] | IC50 [3, 5] [nM] | stabiliser or destabiliser of Fe—S cluster binding, CISD1 Gene Product (mitoNEET) [4] |
| --- | --- | --- | --- | --- | --- | --- | --- | --- | --- | --- | --- |
| CC1CCCc2sc(NC(=O)c3ccccc3)c(C(=O)O)c21 (stereo not shown) [#74] | 390 | 0 | Stabilisers | 65 min | 5 | 182 | 90 min | 0 |  |  |  |
| Cc1ccccc1C(=O)Nc1sc2c(c1C(=O)O)CCC(C(C)(C)C)C2 (stereo not shown) [#82] | 265 | 27 |  | during 180 minutes | 64 |  | during 180 minutes | 60 | Stabilisers | 349 | stabilisers |
| CC(C)OC1CCc2c(sc(NC(=O)c3ccccc3)c2C(=O)O)C1 (stereo not shown) [#103] | 415 | 4 | Stabilisers | 65 min | 20 |  | 95 min | 4 |  | 970 |  |
| CC(C)(C)C1CCc2c(sc(NC(=O)c3ccccc3Cl)c2C(=O)O)C1 (stereo not shown) [#107] | 255 | 21 |  | 75 min | 41 |  | 105 min | 35 | Stabilisers | 1150 | stabilisers |

From patent US11603368B2, “Fused thiophene derivatives and their uses” (ENYO PHARMA, priority 2018, dated 2023)
